Measured values as given in US5332757A, “Oxime derivatives” (Zeneca Limited, priority 1992, dated 1994).
pIC50: −log10 of the molar value.

Legend:
5-LO [1] = molecular target: T1, 5-LO (Homo sapiens, UniProt P09917); assay: test a) in vitro assay, heparinised human blood challenged with calcium ionophore A23187, LTB4 radioimmunoassay; type: cell-based
T1 construct: incubating a test compound with heparinised human blood, prior to challenge with the calcium ionophore A23187; from tissue; host or cells: heparinised human blood (endogenous enzyme of the blood cells)
T1 sequence (P09917 1-674): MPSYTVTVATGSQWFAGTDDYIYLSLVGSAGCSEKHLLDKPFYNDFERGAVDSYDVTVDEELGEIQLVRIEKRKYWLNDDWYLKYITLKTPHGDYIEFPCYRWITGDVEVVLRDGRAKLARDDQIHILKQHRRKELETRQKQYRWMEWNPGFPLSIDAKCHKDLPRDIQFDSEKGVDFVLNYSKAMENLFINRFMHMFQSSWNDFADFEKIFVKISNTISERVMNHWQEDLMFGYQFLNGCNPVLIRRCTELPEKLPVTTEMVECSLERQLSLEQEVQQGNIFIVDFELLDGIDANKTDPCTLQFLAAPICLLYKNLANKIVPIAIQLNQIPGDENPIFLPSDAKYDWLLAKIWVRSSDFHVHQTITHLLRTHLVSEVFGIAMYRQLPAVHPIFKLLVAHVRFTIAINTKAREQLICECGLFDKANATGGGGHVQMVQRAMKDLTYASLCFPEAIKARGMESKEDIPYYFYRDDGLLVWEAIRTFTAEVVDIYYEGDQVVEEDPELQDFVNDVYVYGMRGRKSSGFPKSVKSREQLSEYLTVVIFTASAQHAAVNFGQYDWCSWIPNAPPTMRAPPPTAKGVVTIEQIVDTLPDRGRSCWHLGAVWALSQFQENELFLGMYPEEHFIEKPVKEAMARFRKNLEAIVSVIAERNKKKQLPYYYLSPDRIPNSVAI
Description: a) An in vitro assay system involving incubating a test compound with heparinised human blood, prior to challenge with the calcium ionophore A23187 and then indirectly measuring the inhibitory effects on 5-LO by assaying the amount of LTB4 using specific radioimmunoassays described by Carey and Forder (Prostaglandins, Leukotrienes Med., 1986, 22, 57; Prostaglandins, 1984, 28, 666; Brit. J. Pharmacol., 1985, 84, 34P) which involves the use of a protein-LTB4 conjugate produced using the procedure of Young et alia (Prostaglandins, 1983, 26(4), 605-613). The effects of a test compound on the enzyme cyclooxygenase (which is involved in the alternative metabolic pathway for arachidonic acid and gives rise to prostaglandins, thromboxanes and related metabolites) may be measured at the same time using the specific radioimmunoassay for thromboxane B2 (TxB2) described by Carey and Forder (see above). This test provides an indication of the effects of a test compound against 5-LO and also cyclooxygenase in the presence of blood cells and proteins. It permits the selectivity of the inhibitory effect on 5-LO or cyclooxygenase to be assessed.

5-LO [2] = molecular target: T2, 5-LO (Rattus norvegicus, UniProt P12527); assay: test c) in vivo zymosan-induced liberation of LTB4 in rat air pouch; design: species or system male rats; details: 3 h; test c), oral
T2 construct: within an air pouch generated within the subcutaneous tissue of the back of male rats; from tissue; host or cells: living male rats, cells of the zymosan-inflamed subcutaneous air pouch
T2 sequence (P12527 1-673): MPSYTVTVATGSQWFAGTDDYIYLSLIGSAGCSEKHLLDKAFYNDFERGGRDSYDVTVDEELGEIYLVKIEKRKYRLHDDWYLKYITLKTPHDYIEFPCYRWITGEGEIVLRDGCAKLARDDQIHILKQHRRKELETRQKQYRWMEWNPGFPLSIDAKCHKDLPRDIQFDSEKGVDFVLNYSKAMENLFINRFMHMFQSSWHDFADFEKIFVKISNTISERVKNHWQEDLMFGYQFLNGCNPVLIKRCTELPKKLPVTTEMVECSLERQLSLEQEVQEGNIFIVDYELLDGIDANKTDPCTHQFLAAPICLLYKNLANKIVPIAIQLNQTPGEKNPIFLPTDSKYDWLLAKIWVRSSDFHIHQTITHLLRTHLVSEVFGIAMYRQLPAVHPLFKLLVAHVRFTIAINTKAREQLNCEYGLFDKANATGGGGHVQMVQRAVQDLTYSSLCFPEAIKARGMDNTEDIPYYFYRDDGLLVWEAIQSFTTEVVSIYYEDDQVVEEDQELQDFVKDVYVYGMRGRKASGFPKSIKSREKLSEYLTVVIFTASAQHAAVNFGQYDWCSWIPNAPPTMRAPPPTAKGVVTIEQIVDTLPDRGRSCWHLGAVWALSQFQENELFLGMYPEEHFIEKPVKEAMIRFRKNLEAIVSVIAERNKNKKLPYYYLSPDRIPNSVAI
Description: c) An in vivo system involving measuring the effects of a test compound administered orally against the liberation of LTB4 induced by zymosan within an air pouch generated within the subcutaneous tissue of the back of male rats. The rats are anaesthetised and air pouches are formed by the injection of sterile air (20 ml). A further injection of air (10 ml) is similarly given after 3 days. At 6 days after the initial air injection the test compound is administered (usually orally as the suspension produced when a solution of the test compound in dimethylsulphoxide is added to hydroxypropylmethylcellulose), followed by the intrapouch injection of zymosan (1 ml of a 1% suspension in physiological saline). After 3 hours the rats are killed, the air pouches are lavaged with physiological saline, and the specific radioimmunoassay described above is used to assay LTB4 in the washings. This test provides an indication of inhibitory effects against 5-LO in an inflammatory milieu.

| Structure (SMILES) | pIC50 (5-LO [1]) | ED50 (5-LO [2]) [mg/kg] |
| --- | --- | --- |
| CO[C@]1(c2cc(F)cc(Sc3ccc(/C(C)=N/O)cc3)c2)CCO[C@@H](C)C1 [Example 26, (E)-4'-{5-fluoro-3-[(2S,4R)-4-methoxy-2-methyltetrahydropyran-4-yl]phenylthio}acetophenone oxime] | 7.40 | ~0.05 |
| CO/N=C(\C)c1ccc(Sc2cc(F)cc(C3(OC)CCOCC3)c2)cc1 [Example 2, (E)-4'-[5-fluoro-3-(4-methoxytetrahydropyran-4-yl)phenylthio]acetophenone oxime O-methyl ether] | 6.96 | ~0.5 |
| COC1(c2cc(F)cc(Sc3ccc(/C(C)=N/OCC#N)cc3)c2)CCOCC1 [Example 5, (E)-4'-[5-fluoro-3-(4-methoxytetrahydropyran-4-yl)phenylthio]acetophenone oxime O-cyanomethyl ether] | 7.52 | ~0.5 |
